Test results reported in US20080051585A1, “Process for the preparation of indolin-2-one derivatives useful as PR modulators” (Wyeth, priority 2006, published 2008).

Cn1c(C#N)ccc1-c1ccc2c(c1F)C1(CC1)C(=O)N2 [Example 5, 5-(4′-fluoro-2′-oxospiro[cyclopropane-1,3′-indoline]-5′-yl)-1-methyl-1H-pyrrole-2-carbonitrile]
melting point: 222.5 to 223.8 °C
